Consider three compounds from patent publication US4871528A, “Pharmaceutical compositions having antineoplastic activity” (Boehringer Biochemia Robin SpA, priority 1986, dated 1989).

Converted amounts (≈) assume the structure as drawn. Where two headings read alike, the source gives them in different places.

Data set [1] relates to advanced and relapsing ovarian tumor. The conditions noted are these: administered without glutathione; severe side-effects; cited from earlier work.
The test system is the same in data set [2]. As to the kind of experiment: high-dose cis-platinum+GSH in a patient with advanced and relapsing ovarian tumor (Example 3A). The format is in vivo, human. Particulars: in combination with glutathione. As for the experimental part:
However, in the therapeutical practice, the treatment is usually interrupted after 2 or 3 cycles (400 mg/m^2 or 600 mg/m^2) because of the onset of serious side-effects, which can even be fatal.
A patient having an advanced and relapsing ovarian tumor previously treated with cis-platinum, was treated with a combination of cis-platinum+GSH every four weeks. Cis-platinum was administered at a weekly dosage of 200 mg/m^2 (40 mg/m^2 i.v. in normal saline at 1-5 days) for five weeks; GSH was administered i.v. at a dosage of 35 mg/ mg of cis-platinum in normal saline, 30 minutes before administration of cis-platinum. The week of administration (5 administrations) was followed by three weeks of rest, and then the cycle was repeated, and so on, for a total of 5 cycles of administration extending over 17 weeks (5 weeks of actual treatment and 12 weeks (3 weeks X 4) of rest intervals).

In data set [3] the test system is P388 leukemia. As to the kind of experiment: Effect of GSH (i.v.) at different doxorubicin dosages (i.p.) on P388 leukemia in mice (Table 2). It counts as in vivo. Particulars: DX 12,5 mg/kg i.p.
The subject of data set [4] is P388 leukemia. It counts as in vivo. As for the experimental part: In the Table 1, the results obtained in CD2F1 mice i.p. treated at the day 0 with […] P388 leukemia cells and treated. i.p. at the day 1 with doxorubicin (DX) (7.5 mg/kg) and/or with GSH (333 mg/mg doxorubicin) are reported.
The GSH was administered 30 min. before DX.
The experiment of the combination GSH+DX was repeated in 2 groups of animals.
TMS means mean survival time in days, T/C % is a percent value of the response of drug treated animals in comparison with the control, taken as 100.
TOX means the number of treated animals died before the control animals. LTS is the number of animals survived at long term (2 months at least).
It should be stressed that the test used an experimental model, the P388 leukemia, characterized by an exclusively intraperitoneal tumor growth, i.e. a growth in the cavity wherein the insulation of the tumoral cells has been carried out.

Data set [5] has as its system P388/DX resistant leukemic cells. Nature of the data set: Effect of GSH and doxorubicin on DX-resistant P388/DX leukemia in CD2F1 mice (Table 4). The format is in vivo. As for the experimental part: (§1) The experiments were carried out in a similar way to the experimental scheme of the previous tests 2 and 3. The glutathione was administered i.v. 30, before of doxorubicin. In the tests, whose experimental data are reported in the Tables 3 and 4, the doxorubicin is administered i.p. at a sub-optimal dose level (for the used treatment schedule), in order to evidentiate the synergic effect of the glutathione treatment.
In the case of inoculation of P388/DX resistant leukemic cells an intermediate dose of glutathione was administered, corresponding to GSH/DX ratio of 25 mg/mg (total dose of GSH 187.5).

In data set [6] the test system is anthracycline (doxorubicin) induced myocardiotoxicity. Nature of the data set: Protective effect of glutathione on doxorubicin induced myocardiotoxicity in rats. It counts as in vivo, Sprague Dawley rats. The conditions noted are these: doxorubicin 3 mg/kg i.v. and/or GSH i.v. 30 minutes before, every 7 days, 4 times; 8 weeks. As for the experimental part:
Twenty-four Sprague Dawley rats, weighing 150-200 g, fed with standard diet and water "ad libitum", were randomized in 4 groups (A,B,C,D) 6 animals each.
Six animals were treated i.v. in the morning (10 am.) with […]) dissolved in normal saline (total injected volume 1 ml/kg). After 30 minutes, the same animals were treated i.v. with doxorubicin (3 mg/kg) dissolved in normal saline (total injected volume 1 ml/kg).
The treatment has been then repeated after 7 days, for 4 consecutive times as a whole.
Six animals were treated similarly to group A, except that glutathione was omitted and substituted with normal saline only.
Six animals were treated similarly to group A, except that doxorubicin was substituted with normal saline only.
Six animals were treated similarly to group A except that both drugs were substituted with normal saline.
The day of the first administration was defined "zero day" and all the animals were killed after 8 weeks from the start of the experiment.
During the experiment, starting from the zero time, all the animals were evaluated weekly for body weight increase, electrocardiographic intervals Q-T and S-T.
After the 8-week experiment, the necroscopic examination allowed to evaluate for each animal the degree of myocardial lesions expressed as an average of vacuolate cells for 10 observation fields at the optical microscope (200 x).

The test system of data set [7] is P388 leukemia. Nature of the data set: GSH and Doxorubicin effect on P388 leukemia in CD2F1 mice (Table 3). The format is in vivo. The conditions noted are these: GSH 375 mg/kg i.v. and/or DX 7,5 mg/kg i.p. (GSH/DX 50). As for the experimental part: as §1
In the test of Table 3 wherein P388 leukemic cells were inoculated, variable dosages of glutathione were used, with respect to the fixed dose of DX (7.5 mg/kg) so as to provide GSH/DX ratios respectively of 20 and 50 mg of GSH per mg of DX.

Data set [8] deals with P388 leukemia. Nature of the data set: Effect of GSH (i.v.) at different doxorubicin dosages (i.p.) on P388 leukemia in mice (Table 2). The format is in vivo. The conditions noted are these: for LTS >60 days / T/C % / TOX: in combination GSH 1500 mg/kg i.v.; for TMS: in combination GSH 1500 mg/kg i.v. 30' before. As for the experimental part:
The experimental conditions are similar to that of the previous test.
In these tests, the glutathione has been administered i.v., 30' before of the optional i.p. administration of anthracycline, doxorubicin.
The GSH treated animals received an equal amount of drug (1500 mg/kg) whereas the doxorubicin treated animals received i.p. scalar amounts of anthracycline. The animals consecutively treated with GSH and DX received the two drugs in the ratios of 100, 125, 150 and 200 mg of GSH per mg of DX.

The subject of data set [9] is human HT-29 cells (colon carcinoma). Nature of the data set: In vitro activity of GSH and methotrexate on human HT-29 cells. The format is cell-based. The conditions noted are these: MTX 24 h, read-out: concentration causing 50% of cell death. On the procedure:
(5) In vitro activity of GSH and methotrexate (MTX) on human HT-29 cells (colon carcinoma). Human HT-29 cells (colon carcinoma) were used; the cells were pre-treated with GSH at the concentrations of 20 and 40 mg/ml and then exposed to MTX at the concentrations of 0.05, 0.1, 0.5 and 1 mg/ml for 24 h. The concentrations causing 50% of cell death turned out to be 0.12 mg/ml in the absence of GSH and about 0.04-0.06 mg/ml in the presence of GSH. The cells were cultivated in RPMI 1640 medium+10% of fetal calf serum.

The mark [10] stands for this setting: in combination GSH 1500 mg/kg i.v.
Where [11] appears, read: day 1 i.p.: DX 7.5 mg/kg and/or GSH 333 mg/mg doxorubicin.
Where [12] appears, read: GSH 187,5 mg/kg i.v. and/or DX 7,5 mg/kg i.p.

Consider `N.N.[Cl][Pt][Cl]` [CDDP, cis-diamine-dichloroplatinum], for which, in [1], the “maximum dosage of cis-platinum” value is 400-600 mg/m^2. Moreover, the “maximum applicable dosage of cis-platinum” value in data set [2] was “about 1000 mg/m^2”.
As for `COc1cccc2c1C(=O)c1c(O)c3c(c(O)c1C2=O)C[C@@](O)(C(=O)CO)C[C@@H]3O[C@H]1C[C@H](N)[C@H](O)[C@H](C)O1` [DX, doxorubicin], the T/C % with P388 leukemia [3] (setting [10]) is reported as 120%; in the data set with P388 leukemia [4] (setting [11]) it was 140%; in data set [5] (setting [12]) it was 118%; with P388 leukemia [7], 163%; in the data set on P388 leukemia [8] (DX 10 mg/kg i.p.), 170%; in the data set on P388 leukemia [8] (DX 15 mg/kg i.p.), 60%. The T/C % in the data set with P388 leukemia [8] (DX 7,5 mg/kg i.p.) is reported as 155%. The TOX in the data set on P388 leukemia [3] (setting [10]) was 4/8; in data set [5] (setting [12]), 0/10; in the data set on P388 leukemia [7], 0/10; in the data set with P388 leukemia [8] (DX 10 mg/kg i.p.), 0/8; in the data set with P388 leukemia [8] (DX 15 mg/kg i.p.), 8/8; in the data set with P388 leukemia [8] (DX 7,5 mg/kg i.p.) it was 0/8. The TMS in the data set with P388 leukemia [3] (in combination GSH 1500 mg/kg i.v. 30' before) was 12 days; in data set [5] (GSH 187,5 mg/kg i.v. and/or DX 7,5 mg/kg i.p. (GSH/DX 25 mg/mg)) it was 11,4 days; in the data set with P388 leukemia [7], 16,7 days; with P388 leukemia [8] (DX 10 mg/kg i.p.), 17 days; in the data set with P388 leukemia [8] (DX 15 mg/kg i.p.), 6 days; in the data set on P388 leukemia [8] (DX 7,5 mg/kg i.p.), 15,5 days. Moreover, the “LTS (number of animals survived at long term, 2 months at least)” value in the data set on P388 leukemia [4] (setting [11]) is 0/10. For the same compound, the “TOX (number of treated animals died before the control animals)” value in the data set on P388 leukemia [4] (setting [11]) is 0/10. In the data set on P388 leukemia [4] (day 1 i.p.: DX 7.5 mg/kg and/or GSH 333 mg/mg doxorubicin 30 min. before DX), the “TMS (mean survival time)” value is recorded as 16 days. The LTS (in data set [5] (setting [12]); with P388 leukemia [7]) was 0/10 throughout. In addition, the “body growth curve, ECG recording (Q-T, S-T), number of vacuolate myocardial cells” value in data set [6] was “toxic and cardiological effects”. The “LTS >60 days” value with P388 leukemia [8] (DX 10 mg/kg i.p.), in the data set with P388 leukemia [8] (DX 15 mg/kg i.p.), with P388 leukemia [8] (DX 7,5 mg/kg i.p.) and with P388 leukemia [8] (DX 12,5 mg/kg i.p.) was 0/8 throughout.
For the compound `CN(Cc1cnc2nc(N)nc(N)c2n1)c1ccc(C(=O)N[C@@H](CCC(=O)O)C(=O)O)cc1` [MTX, methotrexate], the IC50 in [9] (in the absence of GSH) was 120 mg/L (≈ 264 µM); in data set [9] (in the presence of GSH (pre-treated at 20 and 40 mg/ml)), 40 to 60 mg/L.
